Assay results as given in patent publication US10676440B2, “Crystalline forms of an NK-1 antagonist” (Helsinn Healthcare SA, priority 2014, dated 2020).

How the values were obtained:
Format in all cases: physicochemical
[1] = Moisture adsorption/desorption (DVS), hygroscopicity
Method: Moisture Adsorption/Desorption data was collected on a DVS-1 (SMS Surface Measurements Systems) moisture balance system. The sorption/desorption isotherms were measured stepwise in a range of 0% RH to 90% RH at 25° C. A weight change of <0.002 mg/min was chosen as the criterion to switch to the next level of relative humidity (with a maximum equilibration time of 6 hours if the weight criterion was not met). The data were corrected for the initial moisture content of the samples so that the weight after drying the sample at 0% relative humidity was taken as the zero point. The hygroscopicity of a given substance was characterized, in accordance with the European Phamacopoeia (Technical Guide 1999), by the increase in mass when the relative humidity is raised from 0% RH to 90% RH, as defined below (where weight increase=x):
Slightly hygroscopic: 0.2%≤x<2.0%
Very hygroscopic: x≥15.0%
Deliquescent: Sufficient liquid as adsorbed to form a liquid

[2] = Gravimetric solubility of Form I in solvents
Method: Solubility was determined gravimetrically. A weighted sample of Form I was suspended in a defined amount of solvent. After equilibration and solvent-liquid separation, the weight of the saturated liquid was determined. The solvent was then evaporated, the solid residue dried to dryness and weighed. The solubility is reported as weight of solid substance dissolved divided by the weight of the solution.

[3] = Stability of ground and kneaded Form I by XRPD; conditions: ball milling 10 min
Method: An untreated sample of Form I was ground by ball milling in a Retsch MM 200 grinder for 10 min at a frequency of 30 Hz. The sample was then analyzed by XRPD to determine its diffraction pattern. The stability of the ground sample was determined by comparing the diffraction pattern of the ground sample with that of the reference sample. […] In FIG. 26, the XRPD pattern for the Form I reference sample is shown in black and the pattern for the ground sample is shown in blue.
An untreated sample of Form I was ground by ball milling in a Retsch MM 200 grinder for 10 min at a frequency of 30 Hz with a catalytic amount of water. The sample was then analyzed by XRPD to determine its diffraction pattern. The stability of the kneaded sample was determined by comparing the diffraction pattern of the kneaded sample with that of the reference sample. […] In FIG. 27, the XRPD pattern for the Form I reference sample is shown in black and the XRPD pattern for the kneaded sample is shown in red.

[4] = Solid form stability of Form II (ambient storage, humidity, water suspension)
Method: Form II was confirmed as a crystalline solid according to XRPD analysis. The XRPD pattern of Form II is shown in FIG. 17 and the peak data is given below in Table 7. […] The red pattern was recorded after storing Form II for 1 h and 20 min under ambient conditions.
Thermogravimetry coupled to Fourier Transform (TGA-FT) measurements taken during the conversion show a loss of trifluoroethanol above 100° C.

[5] = Approximate solubility in water at rt

SMILES: Cc1ccccc1-c1cc(N2CCN(C)CC2)ncc1N(C)C(=O)C(C)(C)c1cc(C(F)(F)F)cc(C(F)(F)F)c1 [Form I, 2-(3,5-bis(trifluoromethyl)phenyl)-N,2-dimethyl-N-(6-(4-methylpiperazin-1-yl)-4-(o-tolyl)pyridin-3-yl)propanamide]
- Hygroscopicity (weight change 0 to 90%-RH) ([1]; 25° C., 0% RH to 90% RH): 0.1%
- Hygroscopicity classification ([1]; 25° C., 0% RH to 90% RH, European Pharmacopoeia classes): non-hygroscopic
- weight gain during the drying step and the first adsorption segment ([1]; first cycle, likely due to electrostatic charges): about 0.3%
- weight loss in the second cycle ([1]; second cycle): 0.1%
- Solubility (% m/m) ([2]; 25° C., 1-Butanol): >11.6 % m/m
- Solubility (% m/m) ([2]; 25° C., 2-Butanone): >11.2 % m/m
- Solubility (% m/m) ([2]; 25° C., Acetone): >11.1 % m/m
- Solubility (% m/m) ([2]; 25° C., Acetonitrile): 9 % m/m
- Solubility (% m/m) ([2]; 25° C., Cyclohexane): 4.2 % m/m
- Solubility (% m/m) ([2]; 25° C., Dichloroethane): >7.0 % m/m
- Solubility (% m/m) ([2]; 25° C., Dioxane): >9.0 % m/m
- Solubility (% m/m) ([2]; 25° C., Ethanol): >11.5 % m/m
- Solubility (% m/m) ([2]; 25° C., Heptane): 1.2 % m/m
- Solubility (% m/m) ([2]; 25° C., Isopropyl Acetate): 22.2 % m/m
- Solubility (% m/m) ([2]; 25° C., Methanol): >11.9 % m/m
- Solubility (% m/m) ([2]; 25° C., N,N-Dimethylformamide): >9.9 % m/m
- Solubility (% m/m) ([2]; 25° C., Tetrahydrofuran): >9.9 % m/m
- Solubility (% m/m) ([2]; 25° C., Toluene): >10.8 % m/m
- Solubility (% m/m) ([2]; 25° C., Trifluoroethanol): >7.5 % m/m
- Solubility (% m/m) ([2]; 25° C., Water): <0.1 % m/m
- Solubility (% m/m) ([2]; 25° C., Water/Acetone 1:2): 7.0 % m/m
- Solubility (% m/m) ([2]; 25° C., Water/Acetone 2:1): 0.2 % m/m
- Solubility (% m/m) ([2]; 25° C., Water/Acetonitrile 1:2): 6.2 % m/m
- Solubility (% m/m) ([2]; 25° C., Water/Acetonitrile 2:1): 0.5 % m/m
- Solubility (% m/m) ([2]; 25° C., Water/Dioxane 1:2): 4.9 % m/m
- Solubility (% m/m) ([2]; 25° C., Water/Dioxane 2:1): 0.1 % m/m
- Solubility (% m/m) ([2]; 25° C., Water/Ethanol 1:2): 3.1 % m/m
- Solubility (% m/m) ([2]; 25° C., Water/Ethanol 2:1): 0.1 % m/m
- Solubility (% m/m) ([2]; 25° C., Water/Methanol 1:2): 1.0 % m/m
- Solubility (% m/m) ([2]; 25° C., Water/Methanol 2:1): 0.2 % m/m
- Solubility (% m/m) ([2]; 25° C., Xylene): 18.4 % m/m
- Solubility (% m/m) ([2]; 60° C., 1-Butanol): 29.9 % m/m
- Solubility (% m/m) ([2]; 60° C., 2-Butanone): >52.6 % m/m
- Solubility (% m/m) ([2]; 60° C., 2-Propanol): 26.2 % m/m
- Solubility (% m/m) ([2]; 60° C., Acetone): >53.3 % m/m
- Solubility (% m/m) ([2]; 60° C., Acetonitrile): 14.4 % m/m
- Solubility (% m/m) ([2]; 60° C., Cyclohexane): 16.0 % m/m
- Solubility (% m/m) ([2]; 60° C., Dichloroethane): 34.7 % m/m
- Solubility (% m/m) ([2]; 60° C., Dioxane): >41.6 % m/m
- Solubility (% m/m) ([2]; 60° C., Ethanol): 33.1 % m/m
- Solubility (% m/m) ([2]; 60° C., Ethyl Acetate): 45.9 % m/m
- Solubility (% m/m) ([2]; 60° C., Heptane): 3.0 % m/m
- Solubility (% m/m) ([2]; 60° C., Isopropyl Acetate): >35.0 % m/m
- Solubility (% m/m) ([2]; 60° C., Methanol): 48.4 % m/m
- Solubility (% m/m) ([2]; 60° C., N,N-Dimethylformamide): 40.7 % m/m
- Solubility (% m/m) ([2]; 60° C., Tetrahydrofuran): >50.4 % m/m
- Solubility (% m/m) ([2]; 60° C., Toluene): 48.8 % m/m
- Solubility (% m/m) ([2]; 60° C., Trifluoroethanol): >39.1 % m/m
- Solubility (% m/m) ([2]; 60° C., Water): <0.1 % m/m
- Solubility (% m/m) ([2]; 60° C., Water/Acetone 1:2): 11.7 % m/m
- Solubility (% m/m) ([2]; 60° C., Water/Acetone 2:1): <0.1 % m/m
- Solubility (% m/m) ([2]; 60° C., Water/Acetonitrile 1:2): 6.4 % m/m
- Solubility (% m/m) ([2]; 60° C., Water/Acetonitrile 2:1): <0.1 % m/m
- Solubility (% m/m) ([2]; 60° C., Water/Dioxane 1:2): 21.1 % m/m
- Solubility (% m/m) ([2]; 60° C., Water/Dioxane 2:1): <0.1 % m/m
- Solubility (% m/m) ([2]; 60° C., Water/Ethanol 1:2): 5.5 % m/m
- Solubility (% m/m) ([2]; 60° C., Water/Ethanol 2:1): <0.1 % m/m
- Solubility (% m/m) ([2]; 60° C., Water/Methanol 1:2): 0.4 % m/m
- Solubility (% m/m) ([2]; 60° C., Water/Methanol 2:1): <0.1 % m/m
- Solubility (% m/m) ([2]; 60° C., Xylene): >35.0 % m/m
- stability of the ground sample (XRPD vs reference) ([3]; 30 Hz): loss of crystallinity
- stability of the kneaded sample (XRPD vs reference) ([3]; 30 Hz with a catalytic amount of water): increased degree of crystallinity

SMILES: Cc1ccccc1-c1cc(N2CCN(C)CC2)ncc1N(C)C(=O)C(C)(C)c1cc(C(F)(F)F)cc(C(F)(F)F)c1 [Form II, 2-(3,5-bis(trifluoromethyl)phenyl)-N,2-dimethyl-N-(6-(4-methylpiperazin-1-yl)-4-(o-tolyl)pyridin-3-yl)propanamide]
- conversion at 80% relative humidity ([4]; 80% relative humidity): convert to Form I
- stability under ambient conditions ([4]; ambient conditions, XRPD): unstable under ambient conditions and converts to Form I
- conversion after storing under ambient conditions ([4]; stored 1 h and 20 min under ambient conditions, XRPD): partial conversion to Form I
- conversion upon suspension equilibration in water ([4]; suspension equilibration in water): convert to Form I

SMILES: Cc1ccccc1-c1cc(N2CCN(C)CC2)ncc1N(C)C(=O)C(C)(C)c1cc(C(F)(F)F)cc(C(F)(F)F)c1 [Form III, 2-(3,5-bis(trifluoromethyl)phenyl)-N,2-dimethyl-N-(6-(4-methylpiperazin-1-yl)-4-(o-tolyl)pyridin-3-yl)propanamide]
- solubility [5]: < 1000 µg/mL
